Data: PubChem BioAssay AID330 (DTP/NCI, 2004)
Several values for one entry are separate records, joined by “and”; a condition that tells them apart may be missing. Equal entries are not always repeated. Toxic doses and inconclusive results are not listed. How the source made its calls: active means survival T/C of 150% or more; inactive means T/C below 125% in these data.

Test system: P388 leukemia ip, CD2F1 mice, survival T/C
Assay: NCI In Vivo Anticancer Drug Screen. Data for tumor model P388 Leukemia (intraperitoneal) in CD2F1 (CDF1) mice
Conditions: endpoint: median survival time, higher = longer survival
Procedure, shortened: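 Mice carrying the transplanted tumor received test compound or vehicle. Survival was recorded in each group, and the value is the treated-group measurement divided by that of the vehicle-treated control group.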

[1] = dose: 60.0 mg/kg/injection, schedule: Q01DX005 (ip), vehicle: saline with Tween-80
[2] = dose: 120.0 mg/kg/injection, schedule: Q01DX005 (ip), vehicle: saline with Tween-80
[3] = dose: 240.0 mg/kg/injection, schedule: Q01DX005 (ip), vehicle: saline with Tween-80
[4] = dose: 50.0 mg/kg/injection, schedule: Q01DX009 (ip), vehicle: saline
[5] = dose: 25.0 mg/kg/injection, schedule: Q01DX009 (ip), vehicle: saline with Tween-80
[6] = dose: 60.0 mg/kg/injection, schedule: Q01DX005 (ip), vehicle: saline
[7] = dose: 100.0 mg/kg/injection, schedule: Q01DX001 (ip), vehicle: saline
[8] = dose: 200.0 mg/kg/injection, schedule: Q01DX001 (ip), vehicle: saline
[9] = dose: 50.0 mg/kg/injection, schedule: Q01DX005 (ip), vehicle: saline with Tween-80
[10] = dose: 100.0 mg/kg/injection, schedule: Q01DX005 (ip), vehicle: saline with Tween-80
[11] = dose: 200.0 mg/kg/injection, schedule: Q01DX005 (ip), vehicle: saline with Tween-80
[12] = dose: 25.0 mg/kg/injection, schedule: Q01DX009 (ip), vehicle: saline

Measured: T/C

CC1OC2CC(O)C1(O)C1=C2C(O)=C(C(N)=O)C(=N)C1=O (stereo not drawn)
inactive: dose: 0.01 mg/kg/injection, schedule: Q01DX009 (ip), vehicle: water 99 % of control | dose: 0.03 mg/kg/injection, schedule: Q01DX009 (ip), vehicle: water 100 % of control | dose: 0.07 mg/kg/injection, schedule: Q01DX009 (ip), vehicle: other 95 % of control | dose: 0.1 mg/kg/injection, schedule: Q01DX009 (ip), vehicle: water 100 % of control | dose: 0.15 mg/kg/injection, schedule: Q01DX009 (ip), vehicle: other 98 % of control | dose: 0.3 mg/kg/injection, schedule: Q01DX009 (ip), vehicle: water 100 % of control | dose: 0.31 mg/kg/injection, schedule: Q01DX005 (ip), vehicle: saline 104 % of control | dose: 0.31 mg/kg/injection, schedule: Q01DX009 (ip), vehicle: other 107 % of control | dose: 0.62 mg/kg/injection, schedule: Q01DX005 (ip), vehicle: saline 104 % of control | dose: 0.62 mg/kg/injection, schedule: Q01DX009 (ip), vehicle: other 101 % of control | dose: 1.0 mg/kg/injection, schedule: Q01DX009 (ip), vehicle: water 90 % of control | dose: 1.25 mg/kg/injection, schedule: Q01DX005 (ip), vehicle: saline 104 % of control | dose: 1.25 mg/kg/injection, schedule: Q01DX009 (ip), vehicle: other 103 % of control | dose: 2.5 mg/kg/injection, schedule: Q01DX005 (ip), vehicle: saline 104 % of control | dose: 2.5 mg/kg/injection, schedule: Q01DX009 (ip), vehicle: other 113 % of control | dose: 3.0 mg/kg/injection, schedule: Q01DX009 (ip), vehicle: water 100 % of control | dose: 5.0 mg/kg/injection, schedule: Q01DX005 (ip), vehicle: saline 101 % of control

CCn1c(=O)c(Cl)c2n(C)c3ccccc3n2c1=O
inactive: [1] 97 % of control | [2] 95 % of control | [3] 94 % of control

CC(C)(C)C(=O)CC(=O)C(F)(F)C(F)(F)C(F)(F)F.CC(C)(C)C(=O)CC(=O)C(F)(F)C(F)(F)C(F)(F)F.CC(C)(C)C(=O)CC(=O)C(F)(F)C(F)(F)C(F)(F)F.[Gd]
inactive: [1] 105 % of control | [2] 110 % of control | [3] 105 % of control

COC(=O)[C@H](C)[C@@H]1CC[C@](C)(CCC2=C(C)CCCC2(C)C)OO1
inactive: dose: 4.38 mg/kg/injection, schedule: Q01DX005 (ip), vehicle: saline + Tween-80 + alcohol 93 % of control | dose: 8.75 mg/kg/injection, schedule: Q01DX005 (ip), vehicle: saline + Tween-80 + alcohol 100 % of control | dose: 17.5 mg/kg/injection, schedule: Q01DX005 (ip), vehicle: saline + Tween-80 + alcohol 94 % of control | dose: 35.0 mg/kg/injection, schedule: Q01DX005 (ip), vehicle: saline + Tween-80 + alcohol 107 % of control

CSc1c2c(c(C)c3c1[nH]c1ccccc13)C=NCC2
inactive: dose: 6.25 mg/kg/injection, schedule: Q04DX002 (ip), vehicle: distilled water + Tween-80 102 % of control | dose: 12.5 mg/kg/injection, schedule: Q04DX002 (ip), vehicle: distilled water + Tween-80 89 % of control | dose: 25.0 mg/kg/injection, schedule: Q04DX002 (ip), vehicle: distilled water + Tween-80 98 % of control | dose: 50.0 mg/kg/injection, schedule: Q04DX002 (ip), vehicle: distilled water + Tween-80 88 % of control | dose: 100.0 mg/kg/injection, schedule: Q04DX002 (ip), vehicle: distilled water + Tween-80 88 % of control

COc1cc2c(cc1O)-c1c(cnn1-c1ccccc1)CCC2
inactive: [4] 119 % of control | dose: 100.0 mg/kg/injection, schedule: Q01DX009 (ip), vehicle: saline 118 % of control | dose: 200.0 mg/kg/injection, schedule: Q01DX009 (ip), vehicle: saline 94 % of control

C1CC[N-]CC1.C1CC[N-]CC1.C1CC[N-]CC1.C1CC[N-]CC1.[Cl][Rh][Cl]
inactive: dose: 3.13 mg/kg/injection, schedule: Q01DX009 (ip), vehicle: saline with Tween-80 120 % of control | dose: 4.0 mg/kg/injection, schedule: Q01DX009 (ip), vehicle: saline 118 % of control | dose: 6.25 mg/kg/injection, schedule: Q01DX009 (ip), vehicle: saline with Tween-80 120 % of control and 123 % of control | dose: 12.5 mg/kg/injection, schedule: Q01DX009 (ip), vehicle: saline with Tween-80 120 % of control | [5] 92 % of control

COc1ccc(C[n+]2ccc3ccccc3c2)cc1
inactive: dose: 15.0 mg/kg/injection, schedule: Q01DX005 (ip), vehicle: saline 95 % of control | dose: 30.0 mg/kg/injection, schedule: Q01DX005 (ip), vehicle: saline 95 % of control | [6] 106 % of control and 111 % of control

CCO/C(C)=[N+](/[O-])S(=O)(=O)c1c(C)cc(C)cc1C
inactive: [7] 103 % of control | [8] 100 % of control | dose: 400.0 mg/kg/injection, schedule: Q01DX001 (ip), vehicle: saline 104 % of control

CCOC(=O)CC1(O)CS/C(=C(\C#N)C(=O)OCC)S1 (stereo not drawn)
inactive: [9] 102 % of control | [10] 102 % of control | [11] 98 % of control

Cc1c2cc(Cl)c3ccccc3c2c[n+]2ccccc12
inactive: dose: 16.5 mg/kg/injection, schedule: Q01DX009 (ip), vehicle: saline 111 % of control | [12] 121 % of control | dose: 37.5 mg/kg/injection, schedule: Q01DX009 (ip), vehicle: saline 124 % of control | dose: 50.0 mg/kg/injection, schedule: Q04DX003 (ip), vehicle: saline with Tween-80 113 % of control | dose: 100.0 mg/kg/injection, schedule: Q04DX003 (ip), vehicle: saline with Tween-80 121 % of control and 123 % of control | dose: 200.0 mg/kg/injection, schedule: Q04DX003 (ip), vehicle: saline with Tween-80 92 % of control | dose: 400.0 mg/kg/injection, schedule: Q04DX003 (ip), vehicle: saline with Tween-80 108 % of control

CS(=O)(=O)/C=C/c1cccnc1
inactive: dose: 50.0 mg/kg/injection, schedule: Q01DX009 (ip), vehicle: Klucel (hydroxypropylcellulose) (HPC) 101 % of control | dose: 100.0 mg/kg/injection, schedule: Q01DX009 (ip), vehicle: Klucel (hydroxypropylcellulose) (HPC) 99 % of control | dose: 200.0 mg/kg/injection, schedule: Q01DX009 (ip), vehicle: Klucel (hydroxypropylcellulose) (HPC) 103 % of control

CSc1noc(N)n1
inactive: dose: 12.5 mg/kg/injection, schedule: Q01DX005 (ip), vehicle: saline 94 % of control | dose: 25.0 mg/kg/injection, schedule: Q01DX005 (ip), vehicle: saline 91 % of control | dose: 50.0 mg/kg/injection, schedule: Q01DX005 (ip), vehicle: saline 103 % of control and 94 % of control

NC(C/C=C\Cl)C(=O)O (stereo not drawn)
inactive: dose: 50.0 mg/kg/injection, schedule: Q01DX005 (ip), vehicle: Klucel (hydroxypropylcellulose) (HPC) 102 % of control | dose: 100.0 mg/kg/injection, schedule: Q01DX005 (ip), vehicle: Klucel (hydroxypropylcellulose) (HPC) 98 % of control | dose: 200.0 mg/kg/injection, schedule: Q01DX005 (ip), vehicle: Klucel (hydroxypropylcellulose) (HPC) 110 % of control

COC(=O)c1ccc(N(C)CC/C(CN)=N/NC(N)=O)cc1
inactive: [9] 99 % of control | [10] 91 % of control | [11] 87 % of control

CC(C)(C)C(=O)CS(=O)(=O)CC(=O)C(C)(C)C
inactive: [5] 112 % of control | dose: 50.0 mg/kg/injection, schedule: Q01DX009 (ip), vehicle: saline with Tween-80 108 % of control | dose: 100.0 mg/kg/injection, schedule: Q01DX009 (ip), vehicle: saline with Tween-80 103 % of control

O=C(NCCCCOc1ccccc1[N+](=O)[O-])OCc1ccccc1
inactive: [9] 101 % of control | [10] 97 % of control | [11] 101 % of control

C[N+](C)(C)CCCO
inactive: dose: 12.5 mg/kg/injection, schedule: Q01DX009 (ip), vehicle: saline 98 % of control | [12] 94 % of control | [4] 93 % of control

CC(CN(C)C)C(/C=C/c1ccc(Cl)c(Cl)c1)=N\Nc1ccccc1 (stereo not drawn)
inactive: [1] 87 % of control | [2] 93 % of control | [3] 87 % of control

[N-]=[N+]=NCc1cnnn1C1OC(CO)C(O)C1O (stereo not drawn)
inactive: [6] 102 % of control | dose: 120.0 mg/kg/injection, schedule: Q01DX005 (ip), vehicle: saline 115 % of control | dose: 240.0 mg/kg/injection, schedule: Q01DX005 (ip), vehicle: saline 99 % of control

CO/N=C1\CC[C@@]2(C)[C@@H](CC[C@@H]3[C@@H]2CC[C@]2(C)C([C@H](C)CCCC(C)C)CC[C@@H]32)C1 (stereo partly drawn)
inactive: [9] 97 % of control | [10] 95 % of control | [11] 100 % of control

C[P+]1(C)CCCCC1
inactive: [7] 98 % of control | [8] 91 % of control
